In patent US20190274303A1, “USE OF A DIFLUORO-(2-HYDROXYPROPYL)PYRIDINE COMPOUND AS A FUNGICIDE FOR CONTROL OF PHYTOPATHOGENIC FUNGI OF BARLEY” (Dow AgroSciences LLC, priority 2016, published 2019):

Tested on: Rhyncosporium secalis (RHYNSE)
Assay: Field assessment of barley leaf scald, Trial 2 (EC and SC formulations)
Type: in vivo
Settings: based on AUDPC, winter barley
From the text: Trial 2: Fungicidal treatments of Compound I were applied using two separate adjuvant systems. In the first system, an EC formulation of compound I was tank mixed with Agnique BP-420 (50%) at an active:adjuvant ratio of 1:2. The second adjuvant system was an SC formulation of Compound I tank mixed with Agnique BP-420 EW (38.5%) at an active:adjuvant ratio of 1:2 and Agnique FOH TDA-9 (30% w/w) applied at 0.33% V/V. Both the EC and SC formulation was sprayed on barley plants at rates of 25, 50, 75, 100, 150, 200 and 250 grams active ingredient per hectare (g ai/ha). Fungicidal treatments were applied at B39 (early curative, 1% infection on leaf 1) growth stage of winter barley (HORVW, Maris Otter variety) under natural infection of RHYNSE. The treatment was part of an experimental trial designed as a randomized complete block with four replications.
Disease severity was recorded as a percentage of visual diseased foliage on whole plot. Barley leaf scald infection was recorded following EPPO PP1/26 guideline prescriptions. Area under the disease progress curve (AUDPC) was calculated for each plot using the sets of recorded severity data. Relative AUDPC (% control based on AUDPC) was calculated as percent of the nontreated control.
In each case of the following Tables, the rating scale of percent control based on AUDPC is as follows: […]

With `N#Cc1ccc(Oc2ccc(C(F)(F)C(O)(Cn3ncnc3S)c3ccc(F)cc3F)nc2)cc1` (centres unmarked) [Compound I, 4-((6-(2-(2,4-difluorophenyl)-1,1-difluoro-2-hydroxy-3-(5-mercapto-1H-1,2,4-triazol-1-yl)propyl)pyridin-3-yl)oxy)benzonitrile] the “Percent Control RHYNSE” value (25 g ai/ha, EC + Agnique BP-420) was “C (26-50)”, the “Percent Control RHYNSE” value (25 g ai/ha, SC + Agnique BP-420 EW and Agnique FOH TDA-9) was “C (26-50)” and the “Percent Control RHYNSE” value (50 g ai/ha, EC + Agnique BP-420) was “C (26-50)”. The “Percent Control RHYNSE” value (50 g ai/ha, SC + Agnique BP-420 EW and Agnique FOH TDA-9) was “C (26-50)”, the “Percent Control RHYNSE” value (75 g ai/ha, EC + Agnique BP-420) was “B (51-74)” and the “Percent Control RHYNSE” value (75 g ai/ha, SC + Agnique BP-420 EW and Agnique FOH TDA-9) was “C (26-50)”. The “Percent Control RHYNSE” value (100 g ai/ha, EC + Agnique BP-420) was “B (51-74)”, the “Percent Control RHYNSE” value (100 g ai/ha, SC + Agnique BP-420 EW and Agnique FOH TDA-9) was “C (26-50)” and the “Percent Control RHYNSE” value (150 g ai/ha, EC + Agnique BP-420) was “B (51-74)”. The “Percent Control RHYNSE” value (150 g ai/ha, SC + Agnique BP-420 EW and Agnique FOH TDA-9) was “B (51-74)”, the “Percent Control RHYNSE” value (200 g ai/ha, EC + Agnique BP-420) was “B (51-74)” and the “Percent Control RHYNSE” value (200 g ai/ha, SC + Agnique BP-420 EW and Agnique FOH TDA-9) was “B (51-74)”. For the same molecule, the “Percent Control RHYNSE” value (250 g ai/ha, EC + Agnique BP-420) was “B (51-74)” and the “Percent Control RHYNSE” value (250 g ai/ha, SC + Agnique BP-420 EW and Agnique FOH TDA-9) was “B (51-74)”.
